US20130096067A1, “DROSOPHILA TUMOR STEM CELL MODEL AND USES THEREOF” (priority 2011, published 2013)
Values joined by “and” are separate entries in the source; they are usually repeats but may differ in a detail not shown here. Equal entries are not always repeated. Where two headings read alike, the source gives them in different places.

System: Raf-1^gof intestinal tumors
Conditions: for Log2 (fold) of luciferase activity relative to DMSO controls / Fold (luciferase activity relative to DMSO controls): ICCB compounds fed in vials to flies with one-day old Raf-1^gof tumors
[1] = screen of 480 ICCB compounds in vials, compounds fed to flies with one-day old Raf-1^gof tumors, assessed three days later, esg-Gal4 luciferase
[2] = screen of 480 ICCB compounds in vials, compounds fed to flies with one-day old Raf-1^gof tumors, assessed three days later, esg-Gal4 luciferase, averaged from multiple wells
[3] = assessed three days later, averaged from multiple wells
Also: test concentration or dose not given here.

| Compound | Log2 (fold) (luciferase activity, log2 of the fold difference relative to DMSO controls) [1] | Fold (luciferase activity, fold difference relative to DMSO controls) [2] | Log2 (fold) of luciferase activity relative to DMSO controls (assessed three days later) | Fold (luciferase activity relative to DMSO controls) [3] | further results |
| --- | --- | --- | --- | --- | --- |
| CC(=O)N[C@@H](CSC/C=C(\C)CC/C=C(\C)CCC=C(C)C)C(=O)O | −0.664 | 0.631 | – | – | – |
| Nc1ccc2c3c(cccc13)C(=O)NC2=O | −0.433 | 0.741 | – | – | – |
| NC(=O)c1cccc(N)c1 | – | – | −0.160 | 0.895 fold | – |
| CCOc1ccc(-c2nc3ccc(-c4nc5ccc(N6CCN(C)CC6)cc5[nH]4)cc3[nH]2)cc1 | −0.592 | 0.663 | – | – | – |
| O=C(O)c1ccccc1Nc1ccccc1 | −0.355 | 0.782 | – | – | – |
| NC(=Nc1ccccc1)NC(=O)c1nc(Cl)c(N)nc1N | – | – | 0.088 | 1.063 fold | – |
| CC(N/C(=N\C#N)Nc1ccncc1)C(C)(C)C (stereo not shown) | −0.591 | 0.664 | – | – | – |
| COc1ccc(CCN(C)CCCC(C#N)(c2ccc(OC)c(OC)c2)C(C)C)cc1OC (stereo not shown) | – | – | – | – | Fold (luciferase activity, fold difference relative to DMSO controls) (in vivo): 0.838; Log2 (fold) (luciferase activity, log2 of the fold difference relative to DMSO controls) (in vivo): −0.255 |
| CCCCC(C)(O)C/C=C/[C@H]1[C@H](O)CC(=O)[C@@H]1CCCCCCC(=O)O (mixture of isomers) [MISOPROSTOL, FREE ACID] | – | – | −0.137 | 0.909 fold | – |
| CCCCCCCCCCCCCCC[C@H](O)[C@@H](N)CO (racemic) [DL-DIHYDROSPHINGOSINE] | – | – | 0.076 | 1.054 fold | – |
| CCCCCCCCCC(=O)N[C@H](CN1CCOCC1)[C@H](O)c1ccccc1 (racemic) [DL-PDMP] | – | – | 0.078 | 1.056 fold | – |
| CCCCCCCCCCCCCCCC(=O)N[C@H](CN1CCOCC1)[C@H](O)c1ccccc1 (racemic) [DL-PPMP] | – | – | 0.108 | 1.078 fold | – |
| O=C(O)CCC/C=C\C[C@@H]1[C@@H](/C=C/[C@@H](O)COc2cccc(C(F)(F)F)c2)[C@H](O)C[C@@H]1O (racemic) [FLUPROSTENOL] | – | – | 0.058 | 1.041 fold | – |
| COC1=CC(=O)O[C@@H](/C=C/c2ccccc2)C1 (racemic) [Kavain (+/−)] | −0.357 | 0.781 | – | – | – |
| CN(C)C[C@H](O)Cn1c2ccc(Br)cc2c2cc(Br)ccc21 (racemic) [Wiskostatin] | −0.646 | 0.639 | – | – | – |
| Clc1ccc(C2CC3CCC2N3)cn1 (racemic) [epibatidine (+/−)] | −0.457 | 0.729 | – | – | – |
| CCCCCCCCCC(=O)OCC(CO)OC(=O)CCCCCCCCC (stereo not shown) [1,2-DIDECANOYL-GLYCEROL (10:0)] | – | – | 0.310 | 1.240 fold | – |
| CCCCCCCC(=O)OC[C@H](CO)OC(=O)CCCCCCC [1,2-DIOCTANOYL-SN-GLYCEROL] | – | – | −0.080 | 0.946 fold | – |
| CCCCCCCC/C=C\CCCCCCCC(=O)OCC(CO)OC(=O)CCCCCCC/C=C\CCCCCCCC (stereo not shown) [1,2-DIOLEOYL-GLYCEROL (18:1)] | – | – | 0.443 | 1.359 fold | – |
| C=C1/C(=C\C=C2/CCC[C@]3(C)[C@@H]([C@H](C)CCCC(C)(C)O)CC[C@@H]23)C[C@@H](O)C[C@@H]1O [1,25-DIHYDROXYVITAMIN D3] | – | – | 0.677 | 1.599 fold | – |
| CCCCC/C=C\C/C=C\C/C=C\C/C=C\CCCC(=O)OC(CO)COCCCCCCCCCCCCCCCC (stereo not shown) [1-HEXADECYL-2-ARACHIDONOYL-GLYCEROL] | −0.379 | 0.769 | – | – | – |

| Compound | Log2 (fold) (luciferase activity, log2 of the fold difference relative to DMSO controls) [1] | Fold (luciferase activity, fold difference relative to DMSO controls) [2] | Log2 (fold) of luciferase activity relative to DMSO controls (assessed three days later) | Fold (luciferase activity relative to DMSO controls) [3] | further results |
| --- | --- | --- | --- | --- | --- |
| CCCCCCCCCCCCCCCCOCC(COP(=O)([O-])OCC[N+](C)(C)C)OC (stereo not shown) [1-HEXADECYL-2-METHYLGLYCERO-3 PC] | – | – | 0.060 | 1.042 fold | – |
| CCCCCCCCCCCCCCCCOCC(CO)OC(C)=O (stereo not shown) [1-HEXADECYL-2-O-ACETYL-GLYCEROL] | – | – | 0.518 | 1.432 fold | – |
| CCCCCCCCCCCCCCCCOCC(CO)OC (stereo not shown) [1-HEXADECYL-2-O-METHYL-GLYCEROL] | −0.219 | 0.859 | – | – | – |
| CCCCCCCCCCCCCCCCCCOCC(COP(=O)([O-])OCC[N+](C)(C)C)OC (stereo not shown) [1-OCTADECYL-2-METHYLGLYCERO-3 PC] | −0.538 | 0.689 | – | – | – |
| CCCCCCCC/C=C\CCCCCCCC(=O)OCC(CO)OC(C)=O (stereo not shown) [1-OLEOYL-2-ACETYL-GLYCEROL] | −0.727 and −0.716 | 0.604 and 0.609 | – | – | – |
| CCCCC/C=C\C/C=C\C/C=C\C/C=C\CCCC(=O)O[C@@H](CO)COC(=O)CCCCCCCCCCCCCCCCC [1-STEAROYL-2-ARACHIDONOYL-GLYCEROL] | −0.532 | 0.692 | – | – | – |
| CCCCC/C=C\C/C=C\CCCCCCCC(=O)OC(CO)COC(=O)CCCCCCCCCCCCCCCCC (stereo not shown) [1-STEAROYL-2-LINOLEOYL-GLYCEROL] | −0.456 | 0.729 | – | – | – |
| CC(C)(C)c1cc(O)c(C(C)(C)C)cc1O [2,5-ditertbutylhydroquinone] | −0.293 | 0.816 | – | – | – |
| CCCCC/C=C\C/C=C\C/C=C\C/C=C\CCCC(=O)OC(CO)CO [2-ARACHIDONOYLGLYCEROL] | – | – | 0.119 | 1.086 fold | – |
| CCCCCCCCCCCCCCC(F)C(=O)O (stereo not shown) [2-FLUOROPALMITIC ACID] | – | – | 0.051 | 1.036 fold | – |
| CCCCCCCCCCCCC(O)C(=O)O (stereo not shown) [2-HYDROXYMYRISTIC ACID] | – | – | 0.087 | 1.062 fold | – |
| CCCC[C@H]1C(=O)O[C@H](C)[C@H](NC(=O)c2cccc(NC=O)c2OC)C(=O)O[C@@H](C)[C@@H]1OC(=O)CC(C)C [2-methoxyantimycin A3] | −0.873 | 0.546 | – | – | – |
| O=c1oc(Cl)c(Cl)c2ccccc12 [3,4-dichloroisocoumarin] | −0.772 | 0.586 | – | – | – |
| CC1=C(/C=C/C(C)=C/C=C/C(C)=C/C(=O)Nc2ccc(O)cc2)C(C)(C)CCC1 [4-HYDROXYPHENYLRETINAMIDE] | −0.244 | 0.845 | – | – | – |
| CCCCCCCCCCOCCC(=O)O [4-OXATETRADECANOIC ACID] | – | – | 0.004 | 1.003 fold | – |
| CCCCC/C=C\C/C=C\C/C=C\C=C\[C@@H](O)CCCC(=O)O [5(S)-HETE] | −0.343 | 0.788 | – | – | – |
| CCCCC/C=C\C/C=C\C/C=C\C=C\[C@H](CCCC(=O)O)OO [5(S)-HPETE] | −0.524 | 0.696 | – | – | – |
| CCCCCC=CCC=CCC=CCC1OC1CCCC(=O)O (stereo not shown) [5,6-EPOXYEICOSATRIENOIC ACID] | – | – | −0.164 | 0.892 fold | – |
| CCCCCCCCC#CCC#CCC#CCCCC(=O)O [5,8,11-EICOSATRIYNOIC ACID] | – | – | 0.094 | 1.067 fold | – |
| CCCCCC(O)CCCC(=O)O (stereo not shown) [5-HYDROXYDECANOATE] | −0.357 | 0.781 | – | – | – |
